Assay results published in article PMC7413254 (Nature Communications, 2020).
Like-named read-outs stand apart in the source and are kept apart here.

Columns and labels:
PfCRT^3D7 [1] = biological target: T1, PfCRT^3D7 (Plasmodium falciparum, UniProt Q8IBZ9); experiment: cell-based; type: cell-based; settings: PfCRT3D7 oocytes, total [3H]CQ transport, normalised to the oocyte type control
Outline: (§1)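 PfCRT-expressing and control oocytes: ND96 pH 5.5 → 1.5 h at 27.5 °C → ice-cold ND96 wash → 10% SDS lysis → scintillation count.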

non-expressing oocytes [2] = type: cell-based, Xenopus laevis; settings: non-expressing oocytes, total [3H]CQ transport, normalised to the oocyte type control
Outline: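 Oocytes (ten per treatment, ≥4 independent frogs/days) were preloaded by injecting VF-6 in 25 nL ND96 at pH 5.0, 5.5, 6.0 or 7.0, or Na^+-free choline buffer, then uptake run 1.5 h, 27.5 °C, ND96 pH 5.5 by default. Internal concentrations assumed ~400 nL oocyte volume.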

PfCRT^Dd2 [3] = biological target: T2, PfCRT^Dd2 (Plasmodium falciparum, UniProt Q9N623, A220S/I356T/K76T/M74I/N326S/N75E/Q271E/R371I); experiment: [3H]CQ uptake into Xenopus oocytes, cis-inhibition by unlabelled solute; type: cell-based; settings: PfCRTDd2 oocytes, background [3H]CQ accumulation subtracted, normalised to oocyte type control
T2 sequence (Q9N623 whole entry A220S/I356T/K76T/M74I/N326S/N75E/Q271E/R371I): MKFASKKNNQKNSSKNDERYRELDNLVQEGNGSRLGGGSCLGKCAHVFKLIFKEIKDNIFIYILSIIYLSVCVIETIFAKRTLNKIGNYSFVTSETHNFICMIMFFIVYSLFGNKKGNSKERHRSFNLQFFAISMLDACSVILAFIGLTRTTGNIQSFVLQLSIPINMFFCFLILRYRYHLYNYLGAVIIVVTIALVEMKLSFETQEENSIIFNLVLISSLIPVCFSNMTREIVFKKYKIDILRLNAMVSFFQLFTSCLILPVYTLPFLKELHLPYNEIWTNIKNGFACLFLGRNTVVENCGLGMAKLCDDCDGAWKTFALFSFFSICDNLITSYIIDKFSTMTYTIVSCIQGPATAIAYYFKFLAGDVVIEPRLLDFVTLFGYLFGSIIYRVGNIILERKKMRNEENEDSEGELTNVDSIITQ
Outline: as §1

PfCRT^Ecu1110 [4] = biological target: T3, PfCRT^Ecu1110 (Plasmodium falciparum, UniProt Q9N623, A220S/I356L/K76T/N326D); experiment: as above; type: cell-based; settings: for Uptake of [3H]CQ (% PfCRTEcu1110 control), cis-inhibition / PfCRT-mediated [3H]CQ transport, cis-inhibition (% PfCRTEcu1110 control): PfCRTEcu1110 oocytes; for Uptake of [3H]CQ (% PfCRTEcu1110 control), cis-inhibition: total [3H]CQ transport, normalised to the oocyte type control; for PfCRT-mediated [3H]CQ transport, cis-inhibition (% PfCRTEcu1110 control): background [3H]CQ accumulation subtracted, normalised to oocyte type control; for [3H]CQ transport (% PfCRTEcu1110 control), cis-inhibition, PfCRTEcu1110: PfCRT-mediated component (background subtracted), sheet title says normalised to PfCRTDd2 control, mean ± SEM, SEM
T3 sequence (Q9N623 whole entry A220S/I356L/K76T/N326D): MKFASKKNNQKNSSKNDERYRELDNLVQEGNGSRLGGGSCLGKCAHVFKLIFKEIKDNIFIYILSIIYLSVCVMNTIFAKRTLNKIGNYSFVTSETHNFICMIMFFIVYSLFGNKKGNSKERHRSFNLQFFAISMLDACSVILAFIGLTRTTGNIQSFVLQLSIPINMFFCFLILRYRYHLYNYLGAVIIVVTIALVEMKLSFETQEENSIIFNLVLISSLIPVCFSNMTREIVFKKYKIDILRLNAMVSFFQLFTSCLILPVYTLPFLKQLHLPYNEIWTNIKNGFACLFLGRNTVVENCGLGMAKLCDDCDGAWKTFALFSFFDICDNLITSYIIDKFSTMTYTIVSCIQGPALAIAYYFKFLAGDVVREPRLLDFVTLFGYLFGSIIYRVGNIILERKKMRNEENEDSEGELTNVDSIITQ
Outline: as §1

PfCRT^Dd2 [5] = biological target: T2, PfCRT^Dd2; experiment: cell-based; type: cell-based; settings: for Uptake of [3H]CQ (% PfCRTDd2 control), trans-stimulation / PfCRT-mediated [3H]CQ transport, trans-stimulation (% PfCRTDd2 control): PfCRTDd2 oocytes; for Uptake of [3H]CQ (% PfCRTDd2 control), trans-stimulation: total [3H]CQ transport, normalised to the oocyte type control; for PfCRT-mediated [3H]CQ transport, trans-stimulation (% PfCRTDd2 control): normalised to oocyte type control; for [3H]CQ transport (% PfCRTDd2 control), trans-stimulation, PfCRTDd2: PfCRT-mediated component (background subtracted), mean ± SEM, SEM
Outline: (§2)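 Transport measured in Xenopus oocytes expressing the transporters, 1.5 h at 27.5 °C in ND96 pH 5.5 unless noted. For trans-stimulation, VF-6 injected in 25 nL ND96 at pH 5.0–7.0 or Na^+-free (choline) buffer; intracellular levels based on ~400 nL oocyte volume. Ten oocytes per treatment, ≥4 experiments.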

PfCRT^Ecu1110 [6] = biological target: T3, PfCRT^Ecu1110; experiment: cell-based; type: cell-based; settings: for Uptake of [3H]CQ (% PfCRTEcu1110 control), trans-stimulation / PfCRT-mediated [3H]CQ transport, trans-stimulation (% PfCRTEcu1110 control): PfCRTEcu1110 oocytes; for Uptake of [3H]CQ (% PfCRTEcu1110 control), trans-stimulation: total [3H]CQ transport, normalised to the oocyte type control; for PfCRT-mediated [3H]CQ transport, trans-stimulation (% PfCRTEcu1110 control): normalised to oocyte type control; for [3H]CQ transport (% PfCRTDd2 control), trans-stimulation, PfCRTEcu1110: PfCRT-mediated component (background subtracted), sheet title says normalised to PfCRTDd2 control, mean ± SEM, SEM
Outline: as §2

PfCRT^3D7 [7] = biological target: T1, PfCRT^3D7; experiment: cell-based; type: cell-based; settings: PfCRT3D7 oocytes; for Uptake of [3H]CQ (% PfCRT3D7 control), trans-stimulation: total [3H]CQ transport, normalised to the oocyte type control; for PfCRT-mediated [3H]CQ transport, trans-stimulation (% PfCRT3D7 control): normalised to oocyte type control
Outline: as §2

PfNT1 = biological target: T4, PfNT1 (Plasmodium falciparum, UniProt Q8IDM6); experiment: cell-based; type: cell-based; settings: PfNT1 oocytes, total [3H]CQ transport, normalised to the oocyte type control
T4 construct: expressed in transfected cells; host or cells: Xenopus laevis oocytes (stage V-VI), cRNA-injected
T4 sequence (Q8IDM6 whole entry): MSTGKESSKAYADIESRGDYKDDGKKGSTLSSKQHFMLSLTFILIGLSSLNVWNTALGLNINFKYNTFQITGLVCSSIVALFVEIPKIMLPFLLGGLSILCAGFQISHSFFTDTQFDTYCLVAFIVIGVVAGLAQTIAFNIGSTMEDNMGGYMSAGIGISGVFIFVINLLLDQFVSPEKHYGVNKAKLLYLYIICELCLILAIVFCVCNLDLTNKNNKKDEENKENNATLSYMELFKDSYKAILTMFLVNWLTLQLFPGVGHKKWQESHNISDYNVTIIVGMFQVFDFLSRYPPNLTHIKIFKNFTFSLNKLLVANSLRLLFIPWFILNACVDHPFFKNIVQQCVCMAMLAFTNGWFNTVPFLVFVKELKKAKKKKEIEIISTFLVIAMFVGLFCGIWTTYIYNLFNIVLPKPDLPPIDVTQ
Outline: as §2

non-expressing oocytes [8] = experiment: cells; type: cell-based, Xenopus laevis; settings: non-expressing oocytes, total [3H]CQ transport, normalised to the oocyte type control
Outline: as §1

[9] = [test solute]i = 45 mM (30 mM for some solutes due to solubility)
[10] = [test solute]i = 5 mM (intracellular)
[11] = [test solute]i = 45 mM (intracellular; 30 mM for some solutes due to solubility)
[12] = [test solute]i = 5 mM (injected)

T1 sequence (Q8IBZ9 59-398): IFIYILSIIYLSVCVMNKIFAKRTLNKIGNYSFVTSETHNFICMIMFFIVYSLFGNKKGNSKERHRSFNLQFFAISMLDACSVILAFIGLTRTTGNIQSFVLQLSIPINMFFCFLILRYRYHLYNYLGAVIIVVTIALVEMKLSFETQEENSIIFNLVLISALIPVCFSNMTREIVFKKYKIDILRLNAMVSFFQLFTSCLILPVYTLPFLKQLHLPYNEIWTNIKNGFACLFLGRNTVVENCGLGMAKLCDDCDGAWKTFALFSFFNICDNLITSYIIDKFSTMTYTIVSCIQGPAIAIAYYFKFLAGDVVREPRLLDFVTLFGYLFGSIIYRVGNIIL

Substance: PNAL [PL-4, host-derived peptide]
- Uptake of [3H]CQ (% PfCRT3D7 control), cis-inhibition (PfCRT^3D7 [1]; [test solute] = 0.5 mM): 99 ± 5.3 % PfCRT3D7 control
- Uptake of [3H]CQ (% PfCRT3D7 control), cis-inhibition (PfCRT^3D7 [1]; [test solute] = 1 mM): 98 ± 5.7 % PfCRT3D7 control
- Uptake of [3H]CQ (% PfCRT3D7 control), cis-inhibition (PfCRT^3D7 [1]; [test solute] = 2 mM): 101 ± 6.3 % PfCRT3D7 control
- Uptake of [3H]CQ (% non-expressing oocyte control), trans-stimulation (non-expressing oocytes [2]; [test solute]i = 5 mM): 100 ± 3.8 % non-expressing oocyte control
- Uptake of [3H]CQ (% non-expressing oocyte control), trans-stimulation (non-expressing oocytes [2]; [9]): 99 ± 3.7 % non-expressing oocyte control
- PfCRT-mediated [3H]CQ transport, cis-inhibition (% PfCRTDd2 control) (PfCRT^Dd2 [3]; [test solute] = 0.5 mM): 68 ± 2.6 % PfCRTDd2 control
- PfCRT-mediated [3H]CQ transport, cis-inhibition (% PfCRTDd2 control) (PfCRT^Dd2 [3]; [test solute] = 1 mM): 55 ± 4.1 % PfCRTDd2 control
- PfCRT-mediated [3H]CQ transport, cis-inhibition (% PfCRTDd2 control) (PfCRT^Dd2 [3]; [test solute] = 2 mM): 39 ± 1.8 % PfCRTDd2 control
- Uptake of [3H]CQ (% PfCRTEcu1110 control), cis-inhibition (PfCRT^Ecu1110 [4]; [test solute] = 0.5 mM): 66 ± 2.9 % PfCRTEcu1110 control
- Uptake of [3H]CQ (% PfCRTEcu1110 control), cis-inhibition (PfCRT^Ecu1110 [4]; [test solute] = 1 mM): 57 ± 2.7 % PfCRTEcu1110 control
- Uptake of [3H]CQ (% PfCRTEcu1110 control), cis-inhibition (PfCRT^Ecu1110 [4]; [test solute] = 2 mM): 45 ± 2.4 % PfCRTEcu1110 control
- PfCRT-mediated [3H]CQ transport, cis-inhibition (% PfCRTEcu1110 control) (PfCRT^Ecu1110 [4]; [test solute] = 0.5 mM): 58 ± 0.5 % PfCRTEcu1110 control
- PfCRT-mediated [3H]CQ transport, cis-inhibition (% PfCRTEcu1110 control) (PfCRT^Ecu1110 [4]; [test solute] = 1 mM): 52 ± 2.6 % PfCRTEcu1110 control
- PfCRT-mediated [3H]CQ transport, cis-inhibition (% PfCRTEcu1110 control) (PfCRT^Ecu1110 [4]; [test solute] = 2 mM): 39 ± 2.1 % PfCRTEcu1110 control
- [3H]CQ transport (% PfCRTEcu1110 control), cis-inhibition, PfCRTEcu1110 (PfCRT^Ecu1110 [4]; [test solute] = 0.5 mM): 18 ± 0.2 % PfCRTEcu1110 control
- [3H]CQ transport (% PfCRTEcu1110 control), cis-inhibition, PfCRTEcu1110 (PfCRT^Ecu1110 [4]; [test solute] = 1 mM): 16 ± 0.1 % PfCRTEcu1110 control
- [3H]CQ transport (% PfCRTEcu1110 control), cis-inhibition, PfCRTEcu1110 (PfCRT^Ecu1110 [4]; [test solute] = 2 mM): 12 ± 0.3 % PfCRTEcu1110 control
- Uptake of [3H]CQ (% PfCRTDd2 control), trans-stimulation (PfCRT^Dd2 [5]; [test solute]i = 5 mM): 99 ± 3.4 % PfCRTDd2 control
- Uptake of [3H]CQ (% PfCRTDd2 control), trans-stimulation (PfCRT^Dd2 [5]; [9]): 97 ± 4.3 % PfCRTDd2 control
- PfCRT-mediated [3H]CQ transport, trans-stimulation (% PfCRTDd2 control) (PfCRT^Dd2 [5]; [10]): 97 ± 2.1 % PfCRTDd2 control
- PfCRT-mediated [3H]CQ transport, trans-stimulation (% PfCRTDd2 control) (PfCRT^Dd2 [5]; [11]): 95 ± 3.8 % PfCRTDd2 control
- [3H]CQ transport (% PfCRTDd2 control), trans-stimulation, PfCRTDd2 (PfCRT^Dd2 [5]; [12]): 97 ± 2.1 % PfCRTDd2 control
- [3H]CQ transport (% PfCRTDd2 control), trans-stimulation, PfCRTDd2 (PfCRT^Dd2 [5]; [9]): 95 ± 3.8 % PfCRTDd2 control
- Uptake of [3H]CQ (% PfCRTEcu1110 control), trans-stimulation (PfCRT^Ecu1110 [6]; [test solute]i = 5 mM): 99 ± 3.3 % PfCRTEcu1110 control
- Uptake of [3H]CQ (% PfCRTEcu1110 control), trans-stimulation (PfCRT^Ecu1110 [6]; [9]): 100 ± 2.2 % PfCRTEcu1110 control
- PfCRT-mediated [3H]CQ transport, trans-stimulation (% PfCRTEcu1110 control) (PfCRT^Ecu1110 [6]; [10]): 97 ± 4.9 % PfCRTEcu1110 control
- PfCRT-mediated [3H]CQ transport, trans-stimulation (% PfCRTEcu1110 control) (PfCRT^Ecu1110 [6]; [11]): 98 ± 3.0 % PfCRTEcu1110 control
- [3H]CQ transport (% PfCRTDd2 control), trans-stimulation, PfCRTEcu1110 (PfCRT^Ecu1110 [6]; [12]): 29 ± 1.7 % PfCRTEcu1110 control
- [3H]CQ transport (% PfCRTDd2 control), trans-stimulation, PfCRTEcu1110 (PfCRT^Ecu1110 [6]; [9]): 30 ± 1.4 % PfCRTEcu1110 control
- Uptake of [3H]CQ (% PfCRT3D7 control), trans-stimulation (PfCRT^3D7 [7]; [test solute]i = 5 mM): 100 ± 2.2 % PfCRT3D7 control
- Uptake of [3H]CQ (% PfCRT3D7 control), trans-stimulation (PfCRT^3D7 [7]; [9]): 101 ± 2.1 % PfCRT3D7 control
- PfCRT-mediated [3H]CQ transport, trans-stimulation (% PfCRT3D7 control) (PfCRT^3D7 [7]; [10]): 98 ± 4.3 % PfCRT3D7 control
- PfCRT-mediated [3H]CQ transport, trans-stimulation (% PfCRT3D7 control) (PfCRT^3D7 [7]; [11]): 99 ± 3.4 % PfCRT3D7 control
- Uptake of [3H]CQ (% PfNT1 control), trans-stimulation (PfNT1; [test solute]i = 5 mM): 99 ± 3.2 % PfNT1 control
- Uptake of [3H]CQ (% PfNT1 control), trans-stimulation (PfNT1; [9]): 100 ± 2.4 % PfNT1 control
- Uptake of [3H]CQ (% non-expressing oocyte control), cis-inhibition (non-expressing oocytes [8]; [test solute] = 1 mM): 100 ± 4.7 % non-expressing oocyte control
- Uptake of [3H]CQ (% non-expressing oocyte control), cis-inhibition (non-expressing oocytes [8]; [test solute] = 2 mM): 99 ± 3.6 % non-expressing oocyte control
